Values of other authors as cited in US20040170677A1, “Method of drug loading in liposomes by gradient” (priority 2002, published 2004).

Conditions: patients receiving doses greater than 550 mg per square meter of body area

COc1cccc2c1C(=O)c1c(O)c3c(c(O)c1C2=O)C[C@@](O)(C(=O)CO)C[C@@H]3O[C@H]1C[C@H](N)[C@H](O)[C@H](C)O1 [doxorubicin, Doxorubicin]
irreversible cardiomyopathy leading to congestive heart failure, share of patients: 1-10%
